| Compound | melting point [°C] |
| --- | --- |
| Cn1cnnc1C(C)(c1ccc(Cl)cc1)c1ccc2c(c1)c(-c1cccc(Cl)c1)cc(=O)n2C.O=C(O)C(=O)O (stereo not drawn) [Example B34, 4-(3-chlorophenyl)-6-[1-(4-chlorophenyl)-1-(4-methyl-4H-1,2,4-triazol-3-yl)ethyl]-1-methyl-2(1H)-quinolinone ethanedioate (1:1)] | 130 |
| Cn1cnnc1C(N)(c1ccc(Cl)cc1)c1ccc2c(c1)c(-c1cccc(Cl)c1)nc1nnnn12 (stereo not drawn) [Example B28e, 5-(3-chlorophenyl)-α-(4-chlorophenyl)-α-(4-methyl-4H-1,2,4-triazol-3-yl)-tetrazolo[1,5-a]quinazoline-7-methanamine] | 220 |
| Cn1cncc1C(O)(c1ccc(CO)cc1)c1ccc2c(c1)c(-c1cccc(Cl)c1)cc(=O)n2C (racemic) [Example B9, (±)-4-(3-chlorophenyl)-6-[hydroxy[4-(hydroxymethyl)phenyl](1-methyl-1H-imidazol-5-yl)methyl]-1-methyl-2(1H)-quinolinone] | 273 |

Source: patent publication US7173040B2, “Farnesyl transferase inhibiting 6-[(substituted phenyl)methyl]-quinoline and quinazoline derinazoline derivatives” (Janssen Pharmaceutica N.V., priority 2000, dated 2007)
